Structure (SMILES) | melting point [°C]
CC(=O)NC[C@H]1CN(c2ccc(-n3cc(Cn4cncn4)cn3)c(F)c2)C(=O)O1 [Example 22, N-{3-[3-fluoro-4-(4-[1,2,4]triazol-1-ylmethyl-pyrazol-1-yl)-phenyl]-2-oxo-oxazolidin-5(S)-ylmethyl}-acetamide] | 126 to 127
CCOC(=O)c1cn(Cc2cn(-c3ccc(N4C[C@H](CNC(=O)OC)OC4=O)cc3F)nn2)nc1N (stereo in doubt) [Example 47, Ethyl 3-amino-1-(1-{2-fluoro-4-[5-(methoxycarbonylamino-methyl)-2-oxo-oxazolidin-3-yl]-phenyl}-1H-[1,2,3]triazol-4-ylmethyl)-1H-pyrazole-4-carboxylate] | 98 to 100
CC(=S)NC[C@H]1CN(c2ccc(-n3cnc(Cn4cccn4)c3)c(F)c2)C(=O)O1 (stereo in doubt) [Example 66, N-{3-[3-fluoro-4-(4-pyrazol-1-ylmethyl-imidazol-1-yl)-phenyl]-2-oxo-oxazolidin-5-ylmethyl}-thioacetamide] | 137 to 139
CC(=O)NC[C@H]1CN(c2ccc(-n3cnc(Cn4cccn4)c3)c(F)c2)C(=O)O1 (stereo in doubt) [Example 26, N-{3-[3-fluoro-4-(4-pyrazol-1-ylmethyl-imidazol-1-yl)-phenyl]-2-oxo-oxazolidin-5-ylmethyl}-acetamide] | 158 to 160
CC(=S)NC[C@H]1CN(c2ccc(-n3cnc(Cn4cncn4)c3)c(F)c2)C(=O)O1 [Example 67, N-{3-[3-fluoro-4-(4-[1,2,4]triazol-1-ylmethyl-imidazol-1-yl)-phenyl]-2-oxo-oxazolidin-5-ylmethyl}-thioacetamide] | 171 to 173
CC(=O)NC[C@H]1CN(c2ccc(-n3cc(Cn4ccc(C(F)(F)F)n4)nn3)c(F)c2)C(=O)O1 [Example 32] | 130 to 140
CC(=O)NC[C@H]1CN(c2ccc(-n3cnc(Cn4cncn4)c3)c(F)c2)C(=O)O1 (stereo in doubt) [Example 26, N-{3-[3-fluoro-4-(4-[1,2,4]triazol-1-ylmethyl-imidazol-1-yl)-phenyl]-2-oxo-oxazolidin-5-ylmethyl}-acetamide] | 171 to 173
COC(=O)NC[C@H]1CN(c2ccc(-c3nc(Cn4cccn4)co3)c(F)c2)C(=O)O1 [Example 34, Methyl {3-[3-fluoro-4-(4-pyrazol-1-ylmethyl-oxazol-2-yl)-phenyl]-2-oxo-oxazolidin-5(S)-ylmethyl}-carbamate] | 170 to 172
COC(=O)NC[C@H]1CN(c2ccc(-n3cnc(Cn4cncn4)c3)c(F)c2)C(=O)O1 [Example 45, Methyl {3-[3-fluoro-4-(4-[1,2,4]-triazol-1-ylmethyl-imidazol-1-yl)-phenyl]-2-oxo-oxazolidin-5-ylmethyl}-carbamate] | 184 to 186
COC(=O)NC[C@H]1CN(c2ccc(-n3cc(Cn4ccc(C(F)(F)F)n4)nn3)c(F)c2)C(=O)O1 [Example 49] | 129 to 130
COC(=O)NC[C@H]1CN(c2ccc(-n3cc(Cn4cncn4)nn3)c(F)c2)C(=O)O1 [Example 48] | 170
CC(=O)NC[C@H]1CN(c2ccc(-n3cc(Cn4cccn4)cn3)c(F)c2)C(=O)O1 [Example 20, N-{3-[3-fluoro-4-(4-pyrazol-1-ylmethyl-pyrazol-1-yl)-phenyl]-2-oxo-oxazolidin-5-(S)-ylmethyl}-acetamide] | 186 to 187
COC(=S)NC[C@H]1CN(c2ccc(-c3nc(Cn4cccn4)co3)c(F)c2)C(=O)O1 [Example 50, O-methyl {3-[3-fluoro-4-(4-pyrazol-1-ylmethyl-oxazol-2-yl)-phenyl]-2-oxo-oxazolidin-5(S)-ylmethyl}-thiocarbamate] | 145 to 147
CC(=S)NC[C@H]1CN(c2ccc(-c3csc(Cn4cncn4)n3)c(F)c2)C(=O)O1 [Example 63, N-{3-[3-Fluoro-4-(2[1,2,4]-triazol-1-ylmethyl-thiazol-4-yl)-phenyl]-2-oxo-oxazolidin-5-ylmethyl}-thioacetamide] | 82 to 84
CC(=O)NC[C@H]1CN(c2ccc(-c3nc(Cn4cncn4)cs3)c(F)c2)C(=O)O1 [Example 11, N-{3-[3-fluoro-4-(4-[1,2,4]triazol-1-ylmethyl-thiazol-2-yl)-phenyl]-2-oxo-oxazolidin-5(S)-ylmethyl}-acetamide] | 196 to 198
COC(=S)NC[C@H]1CN(c2ccc(-n3cc(Cn4ccc(C(F)(F)F)n4)nn3)c(F)c2)C(=O)O1 [Example 59] | 179 to 180

Other lines, results leading:

melting point [°C] | Structure (SMILES)
178 to 180 | CC(=O)NC[C@H]1CN(c2ccc(-c3nc(Cn4cccn4)cs3)c(F)c2)C(=O)O1 [Example 12, N-{3-[3-fluoro-4-(4-pyrazol-1-ylmethyl-thiazol-2-yl)-phenyl]-2-oxo-oxazolidin-5(S)-ylmethyl}-acetamide]
169 to 171 | COC(=S)NC[C@H]1CN(c2ccc(-c3nc(Cn4ccnc4)cs3)c(F)c2)C(=O)O1 [Example 51, O-methyl {3-[3-fluoro-4-(4-imidazol-1-ylmethyl-thiazol-2-yl)-phenyl]-2-oxo-oxazolidin-5(S)-ylmethyl}-thiocarbamate]
165 to 167 | COC(=O)NC[C@H]1CN(c2ccc(-c3nc(Cn4ccnc4)cs3)c(F)c2)C(=O)O1 [Example 33]
180 to 182 | CC(=S)NC[C@H]1CN(c2ccc(-c3nc(Cn4cncn4)cs3)c(F)c2)C(=O)O1 [Example 61, N-{3-[3-fluoro-4-(4-[1,2,4]triazol-1-ylmethyl-thiazol-2-yl)-phenyl]-2-oxo-oxazolidin-5(S)-ylmethyl}-thioacetamide]
169 to 171 | CC(=S)NC[C@H]1CN(c2ccc(-c3nc(Cn4ccnc4)cs3)c(F)c2)C(=O)O1 [Example 60, N-{3-[3-fluoro-4-(4-imidazol-1-ylmethyl-thiazol-2-yl)-phenyl]-2-oxo-oxazolidin-5(S)-ylmethyl}-thioacetamide]
160 to 162 | CC(=S)NC[C@H]1CN(c2ccc(-n3cnc(Cn4ccnc4)c3)c(F)c2)C(=O)O1 (stereo in doubt) [Example 65, N-{3-[3-fluoro-4-(4-imidazol-1-ylmethyl-imidazol-1-yl)-phenyl]-2-oxo-oxazolidin-5-ylmethyl}-thioacetamide]
157 to 158 | COC(=S)NC[C@H]1CN(c2ccc(-c3nc(Cn4cccn4)cs3)c(F)c2)C(=O)O1 [Example 53, O-methyl {3-[3-fluoro-4-(4-pyrazol-1-ylmethyl-thiazol-2-yl)-phenyl]-2-oxo-oxazolidin-5(S)-ylmethyl}-thiocarbamate]
192 to 194 | CC(=O)NC[C@H]1CN(c2ccc(-c3nc(Cn4ccnc4)cs3)c(F)c2)C(=O)O1 [Example 10, N-{3-[3-fluoro-4-(4-imidazol-1-ylmethyl-thiazol-2-yl)-phenyl]-2-oxo-oxazolidin-5(S)-ylmethyl}-acetamide]
180 to 182 | CC(=O)NC[C@H]1CN(c2ccc(-n3cnc(Cn4ccnc4)c3)c(F)c2)C(=O)O1 (stereo in doubt) [Example 24, N-{3-[3-fluoro-4-(4-imidazol-1-ylmethyl-imidazol-1-yl)-phenyl]-2-oxo-oxazolidin-5-ylmethyl}-acetamide]
142 to 144 | COC(=O)NC[C@H]1CN(c2ccc(-c3nc(Cn4cccn4)cs3)c(F)c2)C(=O)O1 [Example 36, Methyl {3-[3-fluoro-4-(4-pyrazol-1-ylmethyl-thiazol-2-yl)-phenyl]-2-oxo-oxazolidin-5(S)-ylmethyl}-carbamate]
189 to 191 | COC(=S)NC[C@H]1CN(c2ccc(-c3nc(Cn4cncn4)cs3)c(F)c2)C(=O)O1 [Example 52, O-methyl {3-[3-fluoro-4-(4-[1,2,4]triazol-1-ylmethyl-thiazol-2-yl)-phenyl]-2-oxo-oxazolidin-5(S)-ylmethyl}-thiocarbamate]
199 to 201 | COC(=O)NC[C@H]1CN(c2ccc(-c3nc(Cn4cncn4)cs3)c(F)c2)C(=O)O1 [Example 35, Methyl {3-[3-fluoro-4-(4-[1,2,4]triazol-1-ylmethyl-thiazol-2-yl)-phenyl]-2-oxo-oxazolidin-5(S)-ylmethyl}-carbamate]
78 to 80 | COC(=O)NC[C@H]1CN(c2ccc(-n3cnc(Cn4ccnc4)c3)c(F)c2)C(=O)O1 (stereo in doubt) [Example 43, Methyl {3-[3-fluoro-4-(4-imidazol-1-ylmethyl-imidazol-1-yl)-phenyl]-2-oxo-oxazolidin-5-ylmethyl}-carbamate]
198 to 200 | CC(=O)NC[C@H]1CN(c2ccc(-c3nc(Cn4ccnc4)co3)c(F)c2)C(=O)O1 [Example 6, N-{3-[3-fluoro-4-(4-imidazol-1-ylmethyl-oxazol-2-yl)-phenyl]-2-oxo-oxazolidin-5(S)-ylmethyl}-acetamide]
154 to 156 | CC(=O)NC[C@H]1CN(c2ccc(-c3csc(Cn4cncn4)n3)c(F)c2)C(=O)O1 (stereo in doubt) [Example 14, N-{3-[3-fluoro-4-(2[1,2,4]triazol-1-ylmethyl-thiazol-4-yl)-phenyl]-2-oxo-oxazolidin-5-ylmethyl}-acetamide]
166 to 168 | CC(=S)NC[C@H]1CN(c2ccc(-c3nc(Cn4cccn4)cs3)c(F)c2)C(=O)O1 [Example 62, N-{3-[3-fluoro-4-(4-pyrazole-1-ylmethyl-thiazol-2-yl)-phenyl]-2-oxo-oxazolidin-5(S)-ylmethyl}-thioacetamide]
171 to 172 | CC(=O)NC[C@H]1CN(c2ccc(-n3cc(Cn4ccnc4)cn3)c(F)c2)C(=O)O1 [Example 18, N-{3-[3-fluoro-4-(4-imidazol-1-ylmethyl-pyrazol-1-yl)phenyl]-2-oxo-oxazolidin-5-(8)-ylmethyl}-acetamide]
154 to 156 | CC(=O)NC[C@H]1CN(c2ccc(-c3csc(Cn4ccnc4)n3)c(F)c2)C(=O)O1 (stereo in doubt) [Example 16, N-{3-[3-Fluoro-4-(2-imidazol-1-ylmethyl-thiazol-4-yl)-phenyl]-2-oxo-oxazolidin-5-ylmethyl}-acetamide]
